We go through 34 compounds from the METLIN SMRT retention time set (Domingo-Almenara et al. 2019).

A short description of the data set: gradient 5% acetonitrile 3 min, to 50% in 2 min, to 85% in 15 min, held 3 min, 100 µL/min. Particulars: column: Zorbax Extend-C18 2.1 x 50 mm; eluents: water / acetonitrile, 0.1% formic acid. The essentials: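 Pure standards were analyzed in mixtures of ~100 molecules using HPLC coupled to a quadrupole time-of-flight mass spectrometer, in both positive and negative ionization mode. Separation used a Zorbax Extend-C18 column (2.1 × 50 mm, 1.8 μm) at 100 μL/min, with water and acetonitrile each containing 0.1% formic acid. Dead and dwell volumes were 40 μL and 900 μL, and data were collected over 3 months. Retention time was read from computationally picked adduct peaks, each inspected manually.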
In turn, `Cn1cc(C(CNC(=O)Nc2ccc3c(c2)OCO3)c2cccnc2)c2ccccc21` (centres undefined) had an RP-LC retention time of 684 s. As for `O=C(NCc1cccnc1)C1(CCO)CCN(c2ncccn2)C1` (centres undefined), the figure is 515 s. In turn, `O=C1CCCN2N=C(SCc3ccc([N+](=O)[O-])cc3)SC2=N1` showed an RP-LC retention time of 779 s.

`CCOC(=O)c1cccc(Nc2c(-c3ccc(N(C)C)cc3)nc3cnccn23)c1` gave an RP-LC retention time of 837 s. As for `CC(C)n1cnc2cc(CNC(=O)c3ccsc3)ccc21`, the figure is 579 s. As for `Cc1cccc(C)c1NC(=O)C1CCCN(c2nnc(C)c3c(C)n(-c4ccccc4)nc23)C1` (centres undefined), the figure is 776 s. As for `Cc1ccc(NC(=O)Nc2nc(CC(=O)Nc3ccc(F)c(F)c3)cs2)cc1`, the figure is 862 s; as for `CCCS(=O)(=O)N1CC(n2cc(C(=O)NCC3CC3)nn2)C1`, 722 s; as for `CCOc1ccc(CNC(=O)C2CCCN(c3nccnc3Sc3ccccc3)C2)cc1OCC` (centres undefined), 1030 s. On to `Fc1ccc(-c2cc(CN3CCCC3)[nH]n2)cc1`, for which the RP-LC retention time turned out to be 594 s. As for `CC1CCN(S(=O)(=O)c2ccc(-c3nnc(C(=O)NCCCc4ccccc4)o3)cc2)CC1`, the figure is 1150 s. As for `Cc1cccc(CC(=O)NCC2CCN(Cc3ccccc3)CC2)c1`, the figure is 566 s; as for `COc1ccc(-c2nc3cc(C)ccn3c2NC(=O)c2ccc([N+](=O)[O-])cc2)cc1`, 691 s; as for `CCCc1noc(-c2cccnc2N2CCCN(Cc3cccc(F)c3)CC2)n1`, 722 s. As for `O=C(Nc1ccc(Cl)cc1)c1cn2c(n1)CCCC2`, the figure is 640 s; as for `O=C(Nc1ccc2c(c1)OCO2)c1noc2c1CCCC2`, 883 s. Regarding `CN(C)C1(CC2CC2)CCN(C(=O)c2ccoc2)CC1`, the RP-LC retention time was 556 s.

`CCc1noc(-c2cnc3nc(C)ccc3c2Nc2ccccc2C)n1` gave an RP-LC retention time of 818 s. As to `COc1ccc(-n2nnc(-c3nsc(Nc4cccc(Cl)c4)n3)c2C)cc1`, the RP-LC retention time amounted to 1080 s. As for `Cc1ccnc(NC(=O)C2CCN(S(=O)(=O)c3ccc4c(c3)sc(=O)n4C(C)C)CC2)c1`, the figure is 794 s; as for `COc1cc(NC(=O)Cc2c(C(=O)O)c(C)cn2C)cc(OC)c1`, 778 s. The compound `Cc1sc(-c2nc(C(C)C)cs2)cc1S(=O)(=O)NCc1cccs1` gave an RP-LC retention time of 1150 s.

With `O=C(CCCn1c(=O)c2cccn2c2ccc(Br)cc21)NCc1ccc2c(c1)OCO2`, the RP-LC retention time is 915 s. As for `Cc1nnc(-c2ccc3ccn(CC(=O)Nc4ccccn4)c3c2)o1`, the figure is 670 s; as for `O=C(CSc1ncnc2c1nnn2Cc1ccccc1)Nc1ccc2c(c1)OCCO2`, 830 s; as for `CC(=O)N1CCCC(c2nc(CNC(=O)C3CCC3)cs2)C1` (centres undefined), 631 s. As for `COc1ccc(S(=O)(=O)N2CCc3nn(CC4CC4)c(=O)n3CC2)cc1Cl`, the figure is 786 s; as for `O=C(NCCc1cccnc1)C1CN(S(=O)(=O)c2ccccc2)CC12CCCCC2` (centres undefined), 664 s; as for `Cc1ccccc1/C=C/C1=NCCN1`, 665 s. Regarding `CCOc1ccc2nc(NC(=O)Cn3nc(C(=O)N4CCCC4)c4ccccc43)sc2c1`, the RP-LC retention time was 894 s. As for `O=C(c1ccc(OCC2CCN(C(=O)c3ccoc3)CC2)cc1)N1CCOCC1`, the figure is 697 s. As for `CN(C)[C@@H]1CN(C(=O)c2ccc(Br)cc2F)C[C@H]1CO`, the figure is 581 s. In turn, `O=c1[nH]c2cc(Br)cnc2[nH]c1=O` returned an RP-LC retention time of 553 s.

Turning to `CCC(=O)Nc1ccc2c(c1)CN(C(=O)CCc1ccccc1)C(C(=O)N1CCCC1)C2` (centres undefined), the RP-LC retention time was found to be 708 s.
